For series [1], the system named is Leishmania amazonensis. The series is described as follows: Antileishmanial activity against GFP-expressing Leishmania amazonensis MHOM/BR/75/Josefa intracellular amastigotes infected in murine peritoneal macrophages incubated for 72 hrs by spectrofluorimetry analysis. The class given is functional, organism-based.
Series [2] can be described thus: Selectivity index, ratio of CC50 for BALB/c mouse peritoneal macrophages to IC50 for GFP-expressing Leishmania amazonensis MHOM/BR/75/Josefa intracellular amastigotes infected in murine peritoneal macrophages. The class given is toxicity, cell-based. To be noted: read-out: Ratio CC50/IC50.
Series [3] can be described thus: Cytotoxicity against sodium thioglycolate-stimulated BALB/c mouse peritoneal macrophages measured after 72 hrs. The class given is cell-based, Peritoneal macrophage.
The subject of series [4] is Leishmania amazonensis. The series is described as follows: Antileishmanial activity against wild type Leishmania amazonensis IFLA/BR/67/PH8 promastigotes assessed as parasite viability incubated for 72 hrs by MTT assay. The class given is functional, organism-based. Particulars: IFLA/BR/67/PH8, 72 h.
Series [5] has as its system Leishmania amazonensis. The series is described as follows: Induction of mitochondrial membrane depolarization in wild type Leishmania amazonensis IFLA/BR/67/PH8 promastigotes assessed as reduction in fluorescence intensity at 48.56 uM measured after 72 hrs by Mitotracker red staining based spectrofluorimetry analysis relative to control. The class given is functional. Set-up: scale not given: the % may be the effect or the level left.

Series [6] deals with Leishmania amazonensis. The series is described as follows: Induction of ROS generation in wild type Leishmania amazonensis IFLA/BR/67/PH8 promastigotes assessed as increase in ROS level by measuring fluorescence intensity at 24.28 uM measured after 24 hrs by H2DCFDA probe based fluorimetry analysis relative to control. The class given is functional.
For series [7], the system named is Leishmania amazonensis. The series is described as follows: Induction of change in plasma membrane integrity in wild type Leishmania amazonensis IFLA/BR/67/PH8 promastigotes assessed as increase in fluorescence intensity at 48.56 uM measured after 24 hrs by propidium iodide staining based spectrofluorimetry analysis relative to control. The class given is functional.

Series [8] concerns Leishmania amazonensis. The series is described as follows: Induction of mitochondrial membrane depolarization in wild type Leishmania amazonensis IFLA/BR/67/PH8 promastigotes assessed as reduction in ratio of […] at 24.28 uM measured after 72 hrs by JC-1 probe based spectrofluorimetry analysis relative to control. The arrangement: scale not given: the % may be the effect or the level left. The class given is functional.

Series [9] has as its system Leishmania amazonensis. The series is described as follows: Induction of ROS generation in wild type Leishmania amazonensis IFLA/BR/67/PH8 promastigotes assessed as increase in ROS level by measuring fluorescence intensity at 48.56 uM measured after 24 hrs by H2DCFDA probe based fluorimetry analysis relative to control. The class given is functional.
The subject of series [10] is Leishmania amazonensis. The series is described as follows: Induction of change in plasma membrane integrity in wild type Leishmania amazonensis IFLA/BR/67/PH8 promastigotes assessed as increase in fluorescence intensity at 24.28 uM measured after 24 hrs by propidium iodide staining based spectrofluorimetry analysis relative to control. The class given is functional.

Series [11] concerns Leishmania amazonensis. The series is described as follows: Induction of mitochondrial membrane depolarization in wild type Leishmania amazonensis IFLA/BR/67/PH8 promastigotes assessed as reduction in ratio of […] at 48.56 uM measured after 72 hrs by JC-1 probe based spectrofluorimetry analysis relative to control. The class given is functional. The arrangement: scale not given: the % may be the effect or the level left.

Series [12] concerns Leishmania amazonensis. The series is described as follows: Induction of mitochondrial membrane depolarization in wild type Leishmania amazonensis IFLA/BR/67/PH8 promastigotes assessed as reduction in fluorescence intensity at 24.28 uM measured after 72 hrs by Mitotracker red staining based spectrofluorimetry analysis relative to control. The class given is functional. The arrangement: scale not given: the % may be the effect or the level left.

Series [13] relates to Leishmania amazonensis. The series is described as follows: Induction of ROS generation in wild type Leishmania amazonensis IFLA/BR/67/PH8 promastigotes assessed as increase in ROS level by measuring fluorescence intensity at 9.66 uM measured after 24 hrs by H2DCFDA probe based fluorimetry analysis relative to control. The class given is functional.
The subject of series [14] is Leishmania amazonensis. The series is described as follows: Induction of ROS generation in wild type Leishmania amazonensis IFLA/BR/67/PH8 promastigotes assessed as increase in ROS level by measuring fluorescence intensity at 19.32 uM measured after 24 hrs by H2DCFDA probe based fluorimetry analysis relative to control. The class given is functional.
Series [15] relates to Leishmania amazonensis. The series is described as follows: Induction of mitochondrial membrane depolarization in wild type Leishmania amazonensis IFLA/BR/67/PH8 promastigotes assessed as reduction in fluorescence intensity at 19.32 uM measured after 72 hrs by Mitotracker red staining based spectrofluorimetry analysis relative to control. The class given is functional. The arrangement: scale not given: the % may be the effect or the level left.

Series [16] relates to Leishmania amazonensis. The series is described as follows: Effect on plasma membrane integrity in wild type Leishmania amazonensis IFLA/BR/67/PH8 promastigotes assessed as increase in fluorescence intensity at 9.66 to 19.32 uM measured after 24 hrs by propidium iodide staining based spectrofluorimetry analysis. The class given is functional, organism-based.
The test system of series [17] is Leishmania amazonensis. The series is described as follows: Induction of mitochondrial membrane depolarization in wild type Leishmania amazonensis IFLA/BR/67/PH8 promastigotes assessed as reduction in ratio of […] at 19.32 uM measured after 72 hrs by JC-1 based spectrofluorimetry analysis relative to control. The class given is functional. The arrangement: scale not given: the % may be the effect or the level left.

Activity calls are given as the source filed them. The calls are words filed in the database; no cut-off is given here. A value given as a limit tells only on which side of the number the result lay.

The values that follow come from ChEMBL document CHEMBL4311990, “Synthesis, biological activity, and mechanism of action of new 2-pyrimidinyl hydrazone and N-acylhydrazone derivatives, a potent and new classes of antileishmanial agents” (Eur J Med Chem, 2019).

The IC50 is the point on the concentration scale where inhibition reaches its midpoint. In general, CC50 refers to the concentration that lowers cell viability or growth by half. Turning to `O=C(N/N=C/c1cc(O)ccc1O)c1ncccn1`, the IC50 in the series on Leishmania amazonensis [1] amounted to 73.9 µM; in the series on Leishmania amazonensis [4] it was 39.3 µM. Besides, the selectivity ratio in series [2] is greater than 2.03. This compound also gave a CC50 at 72 h in series [3] greater than 150 µM.

On to `Oc1cccc(/C=N/Nc2ncccn2)c1O`, for which the IC50 amounted to 14.5 µM in the series on Leishmania amazonensis [1] and 7.95 µM in the series on Leishmania amazonensis [4]. For the same compound, in series [2], the selectivity ratio is greater than 10.3. The compound also had a CC50 at 72 h in series [3] greater than 150 µM.

`Cc1ccc(/C=N/NC(=O)c2ncccn2)c(O)c1`: the results for the half-inhibitory concentration (IC50) in the series on Leishmania amazonensis [1] and in the series with Leishmania amazonensis [4] were 35.8 µM and 52 µM, respectively. Also, the selectivity ratio in [2] is greater than 4.19. Besides, the CC50 at 72 h in [3] was greater than 150 µM.

For the compound `O=C(N/N=C/c1ccccc1O)c1ncccn1`, the IC50 with Leishmania amazonensis [1] was greater than 100 µM; with Leishmania amazonensis [4], 90 µM. The selectivity ratio in series [2] was greater than 1.5. Also, in series [3], the CC50 at 72 h is greater than 150 µM.

Consider `O=C(N/N=C/c1cc([N+](=O)[O-])ccc1O)c1ncccn1`, for which the IC50 in the series with Leishmania amazonensis [1] turned out to be 69.1 µM; with Leishmania amazonensis [4], 29 µM. Further, in series [2], the selectivity ratio was determined as 0.91. This compound registered a CC50 at 72 h in series [3] of 63.4 µM.

Turning to `O=C(N/N=C/c1cccc(O)c1O)c1ncccn1`, the IC50 with Leishmania amazonensis [1] stood at 33.9 µM; in the series on Leishmania amazonensis [4] it was 27.4 µM. For the same compound, the selectivity ratio in series [2] was greater than 4.42. In addition, the CC50 at 72 h in series [3] is greater than 150 µM.

Take `Oc1ccc(O)c(/C=N/Nc2ncccn2)c1`: the values for the IC50 with Leishmania amazonensis [1] and in the series on Leishmania amazonensis [4] were 45.7 µM and 27.5 µM, respectively. For the same compound, the selectivity ratio in [2] was 1.95. Also, in series [3], half-maximal cytotoxicity (CC50 at 72 h) was put at 89.4 µM.

With `O=C(N/N=C/c1ccc([N+](=O)[O-])o1)c1ncccn1`, the Activity is given as 55.48% in the series with Leishmania amazonensis [5]; 47.66% in the series with Leishmania amazonensis [6]; 143% with Leishmania amazonensis [7]; 36% with Leishmania amazonensis [8]; 74.11% in the series on Leishmania amazonensis [9]; 82.9% in the series with Leishmania amazonensis [10]. For the same compound, the Activity with Leishmania amazonensis [11] is reported as 49.75%; in the series with Leishmania amazonensis [12] it was 54.94%. The IC50 in the series on Leishmania amazonensis [1] was found to be 10.8 µM; in the series on Leishmania amazonensis [4], 24.3 µM. The selectivity ratio in series [2] worked out at 2.68. The compound also returned a CC50 at 72 h in series [3] of 29.1 µM.

As for `O=C(N/N=C/c1ccc(O)cc1O)c1ncccn1`, the IC50 in the series on Leishmania amazonensis [1] and with Leishmania amazonensis [4] was greater than 100 µM each time. In series [2], the selectivity ratio is greater than 1.5. Moreover, the CC50 at 72 h in series [3] was greater than 150 µM.

Regarding `O=[N+]([O-])c1ccc(O)c(/C=N/Nc2ncccn2)c1`, the results for the IC50 in the series on Leishmania amazonensis [1] and in the series on Leishmania amazonensis [4] were 10.1 µM and 10.5 µM, respectively. For the same compound, in series [2], the selectivity ratio worked out at 2.36. In addition, the CC50 at 72 h in series [3] is 23.8 µM.

With `O=C(N/N=C/c1ccc([N+](=O)[O-])s1)c1ncccn1`, the half-maximal inhibitory concentration (IC50) in the series on Leishmania amazonensis [1] was 8.41 µM; with Leishmania amazonensis [4] it was greater than 100 µM. In addition, in series [2], the selectivity ratio was greater than 17.8. The compound further gave a CC50 at 72 h in [3] greater than 150 µM.

Take `Cc1ccc(/C=N/Nc2ncccn2)c(O)c1`: the IC50 amounted to 52.1 µM in the series on Leishmania amazonensis [1] and 56 µM with Leishmania amazonensis [4]. In [2], the selectivity ratio turned out to be 1.05. Also, the CC50 at 72 h in [3] amounted to 54.8 µM.

For `Oc1ccccc1/C=N/Nc1ncccn1`, the IC50 in the series with Leishmania amazonensis [1] turned out to be 57.9 µM; with Leishmania amazonensis [4], 28.1 µM. Moreover, the selectivity ratio in series [2] came to 1.45. The compound further yielded a CC50 at 72 h in series [3] of 84.2 µM.

`CCCCCCCCCCCCCCCCOP(=O)([O-])OCC[N+](C)(C)C` [MILTEFOSINE] yielded an IC50 with Leishmania amazonensis [1] of 4.05 µM. For the same compound, the selectivity ratio in series [2] was determined as 32.6. This compound also had a CC50 at 72 h in [3] of 132 µM.

For the compound `O=C(N/N=C/c1ccccn1)c1ncccn1`, the IC50 in the series with Leishmania amazonensis [1] and with Leishmania amazonensis [4] was greater than 100 µM each time. In addition, the selectivity ratio in [2] is greater than 1.5. In series [3], this compound displayed a CC50 at 72 h greater than 150 µM.

As for `C(=N\Nc1ncccn1)/c1ccccn1`, the IC50 was found to be 4.07 µM with Leishmania amazonensis [1] and 9.66 µM with Leishmania amazonensis [4]. In addition, the Activity with Leishmania amazonensis [13] came to 111.1%; with Leishmania amazonensis [14] it was 88.13%; with Leishmania amazonensis [15], 30.27%; in the series with Leishmania amazonensis [17], 10.97%. Also, the selectivity ratio in series [2] stood at 6.04. Moreover, in the series with Leishmania amazonensis [16], the outcome was inactive. This compound also returned a CC50 at 72 h in series [3] of 24.6 µM.
